Data set [1] has as its system Staphylococcus aureus. In words: microbe, parasite or virus in culture. To be noted: USA300, time 18 hrs. Type of data set: functional.
Description: Antibacterial activity against methicillin-resistant Staphylococcus aureus USA300 assessed as inhibition of visible growth of bacteria incubated for 18 hrs by absorbance based analysis
The test system of data set [2] is Staphylococcus aureus. Kind of data set: microbe, parasite or virus in culture. The format is functional. To be noted: NRS-271, time 18 hrs.
Description: Antibacterial activity against methicillin-resistant Staphylococcus aureus NRS-271 assessed as inhibition of visible growth of bacteria incubated for 18 hrs by absorbance based analysis
In data set [3] the test system is Staphylococcus aureus. In words: microbe, parasite or virus in culture. The format is functional. Particulars: time 18 hrs.
Description: Antibacterial activity against multidrug-resistant Staphylococcus aureus clinical isolate XJ051 assessed as inhibition of visible growth of bacteria incubated for 18 hrs by absorbance based analysis
Data set [4] concerns the target T1, ATP-dependent Clp protease proteolytic subunit (Staphylococcus aureus (strain NCTC 8325), UniProt Q2G036).
T1 sequence (Q2G036 whole entry): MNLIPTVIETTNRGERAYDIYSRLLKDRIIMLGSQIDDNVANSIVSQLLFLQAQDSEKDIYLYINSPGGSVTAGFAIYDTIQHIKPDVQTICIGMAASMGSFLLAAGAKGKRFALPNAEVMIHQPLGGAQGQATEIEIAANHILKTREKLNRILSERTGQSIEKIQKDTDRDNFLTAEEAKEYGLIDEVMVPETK
Kind of data set: Agonist activity at Staphylococcus aureus ClpP extracted from Escherichia coli BL21 (DE3) cells using FITC-casein as substrate assessed as substrate hydrolysis preincubated for 60 mins followed by substrate addition and measured after 1 hrs by fluorescence based analysis.

The test system of data set [5] is Staphylococcus aureus. Kind of data set: Antibacterial activity against Staphylococcus aureus 8325-4 harboring ClpP mutant assessed as inhibition of visible growth of bacteria incubated for 18 hrs by absorbance based assay. The format is functional.
In data set [6] the target is T2, ATP-dependent Clp protease proteolytic subunit, mitochondrial (Homo sapiens, UniProt Q16740). Kind of data set: Induction of thermal stabilization of human ClpP extracted from Escherichia coli Rosetta (DE3) cells assessed as change in melting temperature at 10 uM incubated for 10 mins by DSF analysis.
Data set [7] deals with T2, ATP-dependent Clp protease proteolytic subunit, mitochondrial. In words: Agonist activity at human ClpP extracted from Escherichia coli Rosetta (DE3) cells using alpha-casein as substrate assessed as substrate hydrolysis preincubated for 15 mins followed by substrate addition and measured after 2 hrs by SDS-PAGE analysis.
The test system of data set [8] is Staphylococcus aureus. Kind of data set: microbe, parasite or virus in culture. Type of data set: functional. To be noted: time 18 hrs. This is another data set of the same source.
Description: Antibacterial activity against multidrug-resistant Staphylococcus aureus clinical isolate XJ049 assessed as inhibition of visible growth of bacteria incubated for 18 hrs by absorbance based analysis
Data set [9] relates to Staphylococcus aureus. In words: Antibacterial activity against Staphylococcus aureus USA300 infected in female ICR mouse peritonitis model assessed as reduction in bacterial load in lung at 25 to 100 mg/kg, ip pre-infected for 1 hrs followed by compound addition and measured after 5 days relative to control. Type of data set: functional. Particulars: dose 25-100 mg/kg, time 5 day.

Data set [10] can be described thus: Therapeutic index, ratio of IC50 for HK-2 cells to MIC for Staphylococcus aureus Newman. Type of data set: toxicity, cell-based. Particulars: human, read-out: TI.
In data set [11] the target is T3, ATP-dependent Clp protease proteolytic subunit (Staphylococcus aureus (strain NCTC 8325)) (UniProt Q2G036).
T3 sequence (whole entry): T1 sequence (Q2G036 whole entry)
In words: Agonist activity at Staphylococcus aureus ClpP extracted from Escherichia coli BL21 (DE3) cells assessed as induction of ClpP-mediated staphylococcus aureus FtsZ degradation preincubated for 15 mins followed by FtsZ addition by SDS-PAGE analysis. Particulars: filed as agonist, time <= 105.0 min.

Data set [12] concerns Staphylococcus aureus. In words: microbe, parasite or virus in culture. To be noted: time 18 hrs. Type of data set: functional. This is another data set of the same source.
Description: Antibacterial activity against multidrug-resistant Staphylococcus aureus clinical isolate XJ025 assessed as inhibition of visible growth of bacteria incubated for 18 hrs by absorbance based analysis
The subject of data set [13] is Staphylococcus aureus. In words: Antibacterial activity against CLpP overexpressing Staphylococcus aureus 8325-4 assessed as inhibition of visible growth of bacteria incubated for 18 hrs by absorbance based assay. The format is functional, organism-based.
Data set [14] relates to Staphylococcus aureus. In words: Antibacterial activity against CLpP complemented Staphylococcus aureus 8325-4 assessed as inhibition of visible growth of bacteria incubated for 18 hrs by absorbance based assay. The format is functional, organism-based.
Data set [15] concerns Staphylococcus aureus. In words: Antibacterial activity against Staphylococcus aureus USA300 infected in female ICR mouse peritonitis model assessed as reduction in bacterial load in liver at 25 to 100 mg/kg, ip pre-infected for 1 hrs followed by compound addition and measured after 5 days relative to control. Type of data set: functional. Particulars: dose 25-100 mg/kg, time 5 day.

The test system of data set [16] is Staphylococcus aureus. In words: Antibacterial activity against Staphylococcus aureus USA300 infected in female ICR mouse peritonitis model assessed as reduction in bacterial load in peritoneal fluid at 25 to 100 mg/kg, ip pre-infected for 1 hrs followed by compound addition and measured after 5 days relative to control. Type of data set: functional. To be noted: dose 25-100 mg/kg, time 5 day.

Structures are written as SMILES. In brackets after ≈: the same amount, converted by molar mass. Activity calls are given as the source filed them. The calls are words filed in the database; no cut-off is given here.

T2 sequence (Q16740 whole entry): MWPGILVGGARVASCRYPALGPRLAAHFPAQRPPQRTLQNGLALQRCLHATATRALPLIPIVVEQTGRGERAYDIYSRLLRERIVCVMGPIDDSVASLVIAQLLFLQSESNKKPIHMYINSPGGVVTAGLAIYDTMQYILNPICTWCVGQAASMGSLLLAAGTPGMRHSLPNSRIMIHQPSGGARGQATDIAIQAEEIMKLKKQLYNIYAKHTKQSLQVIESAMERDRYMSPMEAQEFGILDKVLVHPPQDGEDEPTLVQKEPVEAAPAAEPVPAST

A word on the ΔTm: it is the change in melting temperature against a reference sample. For the compound `CC[C@H](C)[C@H]1C(=O)N(Cc2ccc(OC)c3ccccc23)C[C@@H]2N(C(=O)NCCCC(F)(F)F)CCC(=O)N12`, the MIC in the data set with Staphylococcus aureus [1] was 0.06 µg/mL (≈ 0.109 µM); with Staphylococcus aureus [2] it was 0.06 µg/mL (≈ 0.109 µM); against Staphylococcus aureus [3], 0.03 µg/mL (≈ 0.0547 µM); with Staphylococcus aureus [5], more than 128 µg/mL; in the data set on Staphylococcus aureus [8] it was 0.13 µg/mL (≈ 0.237 µM); against Staphylococcus aureus [12], 0.13 µg/mL (≈ 0.237 µM). Besides, the EC50 stood at 330 nM in data set [4] and 3600 nM in [7]. Moreover, the ΔTm in data set [6] was 18 °C. Besides, the Activity in the data set with Staphylococcus aureus [9] is 2 log10CFU/g; in data set [11], “Time-dependent-effect”; in the data set on Staphylococcus aureus [15], 2 log10CFU/g; in the data set with Staphylococcus aureus [16] it was 2 log10CFU/g. For the same compound, in data set [10], the selectivity ratio was 180. In addition, the outcome in the data set with Staphylococcus aureus [13] and in the data set with Staphylococcus aureus [14] was Active.

The values are drawn from ChEMBL document CHEMBL6096689, “Structure-Guided Development of ClpP Agonists with Potent Therapeutic Activities against Staphylococcus aureus Infection” (J Med Chem, 2025).
